Data reported in patent US20190183910A1, “ENHANCING DNA REPAIR AND PREVENTING AGING AND ITS CONSEQUENCES IN REPRODUCTIVE AND OTHER CELLS” (NEW YORK MEDICAL COLLEGE, priority 2016, published 2019).

Columns and labels:
[1] = post-transplantation clinical trials; cited from earlier work
[2] = clinical use, FDA-approved for multiple sclerosis; cited from earlier work
mouse sperm [3] = experiment: Alkaline comet assay on mouse sperm; assay type: cell-based; conditions: mouse sperm, H2O2 alone (1 mM), without ATM inhibitor, n=9, mean±SEM
Experimental: (§1) Treatment was performed with genotoxic stress (1 mM H2O2), S1P (200 μM), and S1P with genotoxic stress and control in culture for one hour. Also, the use of an ATM inhibitor was utilized (10 μM) (KU-55593, Abcam) (Li et al., 2014). We assessed DNA damage, apoptosis, and chromatin integrity. We also studied the DNA DSB repair gene expression by qRT-PCR in sperm lysates.
Slides were prepared 48 hours prior to experimentation by coating normal glass microscope slides with 500 μl normal melting point agar (0.5% w/v in PBS) solution and left to dry at room temperature for no less than 48 hours. Then, 10 μl of mouse sperm suspension was mixed with 90 μl of 0.5% LMPA. Then this 100 μl solution was added to the NMPA-coated slides. Coverslips were added and slides were placed on a metallic tray on ice and in the dark for 5 minutes. The cover slips were removed and a 90 μl layer of LMPA was added. Cover slips were subsequently replaced before the LMPA hardened. Slides were then kept in the dark on ice again for another 5 minutes. After ten minutes, the cover slips were removed and slides were placed in staining jars containing ice cold lysing solution (2.5 M NaCl, 200 mM NaOH, 100 mM EDTA, 10 mM Trizma Base, 1% Triton X-100 and 10% DMSO [pH 10]) for 1.5 hours at 4° C. in a dark place.
After this lysis step, the slides were washed three times for 5 minutes with TE buffer (pH 8.0), and then placed flatly in the electrophoresis tank face up for 30 minutes to achieve the unwinding of the DNA. The alkaline electrophoresis buffer in this tank included 300 mM NaOH and 1 mM EDTA [pH13]. This incubation period was used to achieve the alkaline unwinding of the DNA. Electrophoresis was then performed at 25 V, 300 mA for 30 minutes. After this, slides were washed twice in neutralization buffer (0.4 M Tris, pH 7.5) for 5 minutes each. Before analysis could occur, the sperm within the slides needed to be fixed by draining the slides well on paper towels and then subjecting them to two 10 minute washes in ethanol, and then air drying at room temperature for 5 minutes. Ethidium bromide (50 μl at 10 μg/ml in water) was then added on the slide, and sealed with a cover slip. Slides were kept moist, wrapped in aluminum foil to prevent light exposure, and stored at 4° C. until analysis (Williams et al., 2014).
Slides from both alkaline and neutral comets were imaged by fluorescence microscopy using a Nikon OPTIPHOT microscope. ImageJ was used for comet assay analysis, which calculated tail length, tail moment, and % of DNA in the tail. […] To analyze the slides, an oval around the sperm head was drawn and calculated and then an oval around the sperm tail was drawn and calculated. […] It was calculated as the Pythagorean distance between two points. […]

human sperm = experiment: Alkaline comet assay on human sperm; assay type: cell-based; conditions: H2O2 alone, without ATM inhibitor, n=3, mean±SEM
mouse sperm [4] = experiment: Neutral comet assay on mouse sperm; assay type: cell-based; conditions: mouse sperm, H2O2 alone (1 mM), without ATM inhibitor, n=9, mean±SEM
Experimental: as §1
Slides were prepared 48 hours prior to experimentation by coating normal glass microscope slides with 500 μl normal melting point agar (NMPA, 0.5% w/v in PBS) solution and left to dry at room temperature for no less than 48 hours. Once samples were obtained, 10 μl of mouse sperm suspension was mixed with 90 μl of 0.5% low melting point agar (LMPA). Then, this 100 μl solution was added to the NMPA-coated slides. Coverslips were added and slides were placed on a metallic tray on ice and in the dark for 5 minutes. The cover slips were then removed and another layer of LMPA was added. Cover slips were subsequently replaced before the LMPA hardened. Slides were then kept in the dark on ice again for another 5 minutes. After ten minutes, the cover slips were removed and slides were placed in staining jars containing ice cold lysing solution (2.5 M NaCl, 100 mM EDTA, sodium N-laurylsacrosinate [SLS]. [1% w/v] and 10 mM Trizma base pH10, and 1% Triton-X-100 and 10% DMSO [immediately adding before use]) for 1 hour at 4° C. in a dark place.
After this lysis step, the slides were washed three times for 5 minutes with the cold electrophoresis buffer (0.089 M Tris base, 0.089 M boric acid and 2 mM EDTA [pH 8.3]), and then placed flatly in the electrophoresis tank face up for 30 minutes. This incubation period was used to achieve the unwinding of the DNA. Electrophoresis was then performed at 18 V for 60 minutes. After this, slides were washed twice in PBS for 5 minutes each. Before analysis could occur, the sperm within the slides needed to be fixed by two 10 minute washes in ethanol, and then air drying at room temperature. Ethidium bromide (50 μl at 10 μg/ml in water) was then added on the slide, and sealed with a cover slip. Slides were kept moist, wrapped in aluminum foil to prevent light exposure, and stored at 4° C. until analysis (Smart et al., 2008).
Slides from both alkaline and neutral comets were imaged by fluorescence microscopy using a Nikon OPTIPHOT microscope. ImageJ was used for comet assay analysis, which calculated tail length, tail moment, and % of DNA in the tail. […] The comets were “on scale” for the calculations to be correct (the brightest pixels of interest were below 255 on an 8-bit scale). […] To analyze the slides, an oval around the sperm head was drawn and calculated and then an oval around the sperm tail was drawn and calculated. […] It was calculated as the Pythagorean distance between two points. […]

| SMILES | benefit as antirejection medication [1] | safety profile [2] | percent tail DNA, alkaline comet (mouse sperm [3]) [%] | percent tail DNA, alkaline comet (human sperm) [%] | percent tail DNA, neutral comet (mouse sperm [4]) [%] |
| --- | --- | --- | --- | --- | --- |
| CCCCCCCCc1ccc(CCC(N)(CO)CO)cc1 [FTY720] | failed to show any significant benefit | acceptable safety profile |  |  |  |
| OO [H2O2, reference compound] |  |  | 27.3±0.90 | 24.0±1.70 | 29.6±0.64 |
